In US12545639B2, “3-substituted phenylamidine compounds, preparation and use thereof” (PI INDUSTRIES LTD., priority 2019, dated 2026):

Assays:
Pyricularia oryzae = test: microbe, parasite or virus in culture; format: cell-based; conditions: 168 h, read-out: control compared to the untreated check (radial growth)
Colletotrichum capsici = Colletotrichum capsici (anthracnose) in vitro test, radial growth on potato dextrose agar; format: cell-based; conditions: Colletotrichum truncatum, 168 h; 300 ppm in potato dextrose agar; 25° C., 60% relative humidity, seven days; read-out: control compared to the untreated check (radial growth)
Rhizoctonia solani = Rhizoctonia solani (rice sheath blight/potato black scurf) in vitro test, radial growth on potato dextrose agar; format: cell-based; conditions: 168 h, 300 ppm in potato dextrose agar, 25° C., 60% relative humidity, seven days, read-out: control compared to the untreated check (radial growth)
Botrytis cinerea = Botrytis cinerea (gray mold) in vitro test, radial growth on potato dextrose agar; format: cell-based; conditions: 168 h, 300 ppm in potato dextrose agar, 22° C., 90% relative humidity, seven days, read-out: control compared to the untreated check (radial growth)
Alternaria solani = Alternaria solani (early blight of tomato/potato) in vitro test, radial growth on potato dextrose agar; format: cell-based; conditions: 168 h, 300 ppm in potato dextrose agar, 25° C., 60% relative humidity, seven days, read-out: control compared to the untreated check (radial growth)
[1] = tested on: Septoria lycopersici/Corynespora cassicola (CORYCA); test: Septoria lycopersici/Corynespora cassicola (CORYCA) (leaf spot of tomato) in vitro test, radial growth on potato dextrose agar; format: cell-based; conditions: 168 h, 300 ppm in potato dextrose agar, 25° C., 70% relative humidity, seven days, read-out: control compared to the untreated check (radial growth)
Phakopsora pachyrhizi = Phakopsora pachyrhizi test in soybean, preventive, in vivo on plants; conditions: in Glycine max, read-out: Efficacy (% control), disease severity compared to the untreated check

CCN(C)C=Nc1cc(C)cc(N(C)c2cccc(C)c2F)c1Cl [Compound 139, N′-(2-chloro-3-((2-fluoro-3-methylphenyl)(methyl)amino)-5-methylphenyl)-N-ethyl-N-methylformimidamide]
≥ 70%: inhibition of growth at 300 ppm (Pyricularia oryzae) | inhibition of growth at 300 ppm (Colletotrichum capsici)

CCN(C)C=Nc1cc(F)cc(Cc2cccc(C)c2)c1C [Compound 146, N-ethyl-N′-(5-fluoro-2-methyl-3-(3-methylbenzyl)phenyl)-N-methylformimidamide]
≥ 70%: inhibition of growth at 300 ppm (Pyricularia oryzae) | inhibition of growth at 300 ppm (Rhizoctonia solani) | inhibition of growth at 300 ppm (Botrytis cinerea) | inhibition of growth at 300 ppm (Alternaria solani) | inhibition of growth at 300 ppm [1] | pest or weed control at 500 ppm (Phakopsora pachyrhizi)

CCN(C)C=Nc1cc(F)cc(Cc2cccc([N+](=O)[O-])c2)c1C [Compound 259, N-ethyl-N′-(5-fluoro-2-methyl-3-(3-nitrobenzyl)phenyl)-N-methylformimidamide]
≥ 70%: inhibition of growth at 300 ppm (Pyricularia oryzae) | inhibition of growth at 300 ppm (Rhizoctonia solani) | inhibition of growth at 300 ppm (Botrytis cinerea) | inhibition of growth at 300 ppm (Alternaria solani) | inhibition of growth at 300 ppm [1] | pest or weed control at 500 ppm (Phakopsora pachyrhizi)

CCN(C)C=Nc1cc(Cl)cc(N(C)c2ccccc2C)c1C [Compound 191, N′-(5-chloro-2-methyl-3-(methyl(o-tolyl)amino)phenyl)-N-ethyl-N-methylformimidamide]
≥ 70%: inhibition of growth at 300 ppm (Pyricularia oryzae) | inhibition of growth at 300 ppm (Rhizoctonia solani) | inhibition of growth at 300 ppm (Botrytis cinerea) | inhibition of growth at 300 ppm (Alternaria solani) | inhibition of growth at 300 ppm [1] | pest or weed control at 500 ppm (Phakopsora pachyrhizi)

CCN(C)C=Nc1cc(C)cc(Cc2cccc(F)c2)c1Cl [Compound 22, N′-(2-chloro-3-(3-fluorobenzyl)-5-methylphenyl)-N-ethyl-N-methylformimidamide]
≥ 70%: inhibition of growth at 300 ppm (Pyricularia oryzae) | inhibition of growth at 300 ppm (Rhizoctonia solani) | inhibition of growth at 300 ppm (Botrytis cinerea) | inhibition of growth at 300 ppm (Alternaria solani) | inhibition of growth at 300 ppm [1] | pest or weed control at 500 ppm (Phakopsora pachyrhizi)

CCN(C)C=Nc1cc(F)cc(Cc2ccccc2C)c1C [Compound 148, N-ethyl-N′-(5-fluoro-2-methyl-3-(2-methylbenzyl)phenyl)-N-methylformimidamide]
≥ 70%: inhibition of growth at 300 ppm (Pyricularia oryzae) | inhibition of growth at 300 ppm (Rhizoctonia solani) | inhibition of growth at 300 ppm (Botrytis cinerea) | inhibition of growth at 300 ppm (Alternaria solani) | inhibition of growth at 300 ppm [1] | pest or weed control at 500 ppm (Phakopsora pachyrhizi)

CCN(C)C=Nc1cc(F)cc(N(C)c2c(C)cccc2F)c1C [Compound 145, N-ethyl-N′-(5-fluoro-3-((2-fluoro-6-methylphenyl)(methyl)amino)-2-methylphenyl)-N-methylformimidamide]
≥ 70%: inhibition of growth at 300 ppm (Pyricularia oryzae) | inhibition of growth at 300 ppm (Rhizoctonia solani) | inhibition of growth at 300 ppm (Botrytis cinerea) | inhibition of growth at 300 ppm (Alternaria solani) | inhibition of growth at 300 ppm [1] | pest or weed control at 500 ppm (Phakopsora pachyrhizi)

CCN(C)C=Nc1cc(Cl)cc(Nc2cccc(C(F)(F)F)n2)c1C [Compound 274, N′-(5-chloro-2-methyl-3-((6-(trifluoromethyl)pyridin-2-yl)amino)phenyl)-N-ethyl-N-methylformimidamide]
≥ 70%: inhibition of growth at 300 ppm (Pyricularia oryzae) | inhibition of growth at 300 ppm (Rhizoctonia solani) | inhibition of growth at 300 ppm (Botrytis cinerea) | inhibition of growth at 300 ppm (Alternaria solani) | inhibition of growth at 300 ppm [1] | pest or weed control at 500 ppm (Phakopsora pachyrhizi)
